Reference: publication PMC3315319 (Nucleic Acids Research, 2011)

Target: T1, gp16 (eGFP-gp16) (Bacillus phage phi29, UniProt P11014)
T1 sequence (P11014 1-332): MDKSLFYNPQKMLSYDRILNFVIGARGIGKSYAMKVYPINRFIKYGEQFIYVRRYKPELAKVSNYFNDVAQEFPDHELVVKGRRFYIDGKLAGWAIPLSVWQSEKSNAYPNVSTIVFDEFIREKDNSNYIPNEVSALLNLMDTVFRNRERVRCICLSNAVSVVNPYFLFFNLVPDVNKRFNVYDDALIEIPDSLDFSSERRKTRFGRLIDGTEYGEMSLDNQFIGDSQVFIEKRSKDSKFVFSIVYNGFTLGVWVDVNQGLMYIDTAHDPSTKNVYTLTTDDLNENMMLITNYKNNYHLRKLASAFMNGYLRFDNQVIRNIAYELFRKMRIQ
Experiment: EMSA, release of dsDNA from gp16/dsDNA/γ-S-ATP complex
Assay type: binding
Conditions: γ-S-ATP present, Cy3-dsDNA; indirect read-out of nucleotide action

Question: Which “EMSA, release of dsDNA from gp16/dsDNA/γ-S-ATP complex” value does the source give for `Nc1ncnc2c1ncn2[C@@H]1O[C@H](COP(=O)(O)OP(=O)(O)O)[C@@H](O)[C@H]1O` [ADP] here?
Answer: ADP also stimulated the release of gp16 from the gp16/dsDNA complex
